Reference: PMC6618241 (Angewandte Chemie (International Ed. in English), 2019)

System: MRSA USA300 LAC
Test: Antimicrobial activity assay
Type: cell-based, Staphylococcus aureus

In the case of “(CPraWLVWV) (head to tail) [compound 24, 2‐Pra‐6‐Trp‐lug]”, the “antimicrobial activity against USA300 (in words)” value (MIC ≥100 μg mL^−1 regarded as inactive) is reported as “active” and the “change of antimicrobial activity relative to 1” value (from MIC values, compared with 1) is reported as “equal activity”.
